Results reported in patent publication US5080904A, “Liposome composition and its production” (Takeda Chemical Industries, Ltd., priority 1989, dated 1992).

test: Phase transition temperature of the lipid; assay type: physicochemical; details: not given

Point of comparison: CCCCCCCCCCCCCC(=O)OCC(COP(=O)(O)OCC(O)CO)OC(=O)CCCCCCCCCCCCC (centres unmarked) [DMPG, dimyristoylphosphatidylglycerol], “phase transition temperature (found value) of phospholipid” value 23 °C. Against it:
- CCCCCCCCCCCCCC(=O)OC[C@H](COP(=O)([O-])OCC[N+](C)(C)C)OC(=O)CCCCCCCCCCCCC [DMPC, dimyristoylphosphatidylcholine] — higher, 23.9 °C
- CCCCCCCCCCCCCCCC(=O)OC[C@H](COP(=O)([O-])OCC[N+](C)(C)C)OC(=O)CCCCCCCCCCCCC [PMPC, palmitoylmyristoylphosphatidylcholine] — higher, 27.2 °C
- CCCCCCCCCCCCCCCC(=O)OCC(COP(=O)(O)OCCN)OC(=O)CCCCCCCCCCCCCCC (centres unmarked) [DPPE, dipalmitoylphosphatidylethanolamine] — higher, 60 °C
- CCCCCCCCCCCCCC(=O)OCC(COP(=O)(O)OCCN)OC(=O)CCCCCCCCCCCCC (centres unmarked) [DMPE, dimyristoylphosphatidylethanolamine] — higher, 50 °C
- CCCCCCCCCCCCCCCC(=O)OCC(COP(=O)(O)OCC(O)CO)OC(=O)CCCCCCCCCCCCCCC (centres unmarked) [DPPG, dipalmitoylphosphatidylglycerol] — higher, 41 °C
- CCCCCCCCCCCCCCCCCC(=O)OCC(COP(=O)([O-])OCC[N+](C)(C)C)OC(=O)CCCCCCCCCCCCCCCCC (centres unmarked) [DSPC, distearoylphosphatidylcholine] — higher, 54.9 °C
- CCCCCCCCCCCCCCCCCC(=O)OC[C@H](COP(=O)([O-])OCC[N+](C)(C)C)OC(=O)CCCCCCCCCCCCCCC [SPPC, stearoylpalmitoylphosphatidylcholine] — higher, 44.0 °C
- CCCCCCCCCCCCCC(=O)OCC(COP(=O)(O)OCC(N)C(=O)O)OC(=O)CCCCCCCCCCCCC (centres unmarked) [DMPS, dimyristoylphosphatidylserine] — higher, 38 °C
- CCCCCCCCCCCCCCCCCC(=O)O[C@H](COC(=O)CCCCCCCCCCCCCCC)COP(=O)([O-])OCC[N+](C)(C)C [PSPC, palmitoylstearoylphosphatidylcholine] — higher, 47.4 °C
- dipalmitoylsphingomyelin [DPSM] — higher, 41 °C
- CCCCCCCCCCCCCCCC(=O)OC[C@H](COP(=O)([O-])OCC[N+](C)(C)C)OC(=O)CCCCCCCCCCCCCCC [DPPC, dipalmitoylphosphatidylcholine] — higher, 41.4 °C
- CCCCCCCCCCCCCCCCCC(=O)OCC(COP(=O)(O)OCC(O)CO)OC(=O)CCCCCCCCCCCCCCCCC (centres unmarked) [DSPG, distearoylphosphatidylglycerol] — higher, 55 °C
- CCCCCCCCCCCCCCCC(=O)OCC(COP(=O)(O)OCC(N)C(=O)O)OC(=O)CCCCCCCCCCCCCCC (centres unmarked) [DPPS, dipalmitoylphosphatidylserine] — higher, 51 °C
- myristoylpalmitoylphosphatidylcholine [MPPC] — higher, 35.3 °C
- distearoylsphingomyelin [DSSM] — higher, 57 °C

With CCCCCCCCCCCCCCCCCC(=O)OCC(COP(=O)(O)OCCN)OC(=O)CCCCCCCCCCCCCCCCC (centres unmarked) [DSPE, disteraroylphosphatidylethanolamine] the “phase transition temperature (found value) of phospholipid” value was “over 60 °C”.
With CCCCCCCCCCCCCCCCCC(=O)OCC(COP(=O)(O)OCC(N)C(=O)O)OC(=O)CCCCCCCCCCCCCCCCC (centres unmarked) [DSPS, distearoylphosphatidylserine] the “phase transition temperature (found value) of phospholipid” value was “over 50 °C”.

test: not given; details: Biochemica et Biophysica Acta, 859, 246-256 (1986); cited from earlier work

In the case of sulfatide, the “phase transition temperature of sulfatide, first value” is given as 34.8 °C.

In the case of sulfatide, the “phase transition temperature of sulfatide, second value” is given as 47.3 °C.
